The record followed here is patent US12486284B2, “Ubiquitin-specific protease inhibitor and preparation method therefor and use thereof” (CHASER THERAPEUTICS, INC., priority 2019, dated 2025).

Where two headings read alike, the source gives them in different places. Some results are limits rather than exact numbers.

In one experiment the target is T1, USP28 (Homo sapiens, UniProt Q96RU2).
T1 construct: purchased R&D Systems
T1 sequence (Q96RU2 1-1077): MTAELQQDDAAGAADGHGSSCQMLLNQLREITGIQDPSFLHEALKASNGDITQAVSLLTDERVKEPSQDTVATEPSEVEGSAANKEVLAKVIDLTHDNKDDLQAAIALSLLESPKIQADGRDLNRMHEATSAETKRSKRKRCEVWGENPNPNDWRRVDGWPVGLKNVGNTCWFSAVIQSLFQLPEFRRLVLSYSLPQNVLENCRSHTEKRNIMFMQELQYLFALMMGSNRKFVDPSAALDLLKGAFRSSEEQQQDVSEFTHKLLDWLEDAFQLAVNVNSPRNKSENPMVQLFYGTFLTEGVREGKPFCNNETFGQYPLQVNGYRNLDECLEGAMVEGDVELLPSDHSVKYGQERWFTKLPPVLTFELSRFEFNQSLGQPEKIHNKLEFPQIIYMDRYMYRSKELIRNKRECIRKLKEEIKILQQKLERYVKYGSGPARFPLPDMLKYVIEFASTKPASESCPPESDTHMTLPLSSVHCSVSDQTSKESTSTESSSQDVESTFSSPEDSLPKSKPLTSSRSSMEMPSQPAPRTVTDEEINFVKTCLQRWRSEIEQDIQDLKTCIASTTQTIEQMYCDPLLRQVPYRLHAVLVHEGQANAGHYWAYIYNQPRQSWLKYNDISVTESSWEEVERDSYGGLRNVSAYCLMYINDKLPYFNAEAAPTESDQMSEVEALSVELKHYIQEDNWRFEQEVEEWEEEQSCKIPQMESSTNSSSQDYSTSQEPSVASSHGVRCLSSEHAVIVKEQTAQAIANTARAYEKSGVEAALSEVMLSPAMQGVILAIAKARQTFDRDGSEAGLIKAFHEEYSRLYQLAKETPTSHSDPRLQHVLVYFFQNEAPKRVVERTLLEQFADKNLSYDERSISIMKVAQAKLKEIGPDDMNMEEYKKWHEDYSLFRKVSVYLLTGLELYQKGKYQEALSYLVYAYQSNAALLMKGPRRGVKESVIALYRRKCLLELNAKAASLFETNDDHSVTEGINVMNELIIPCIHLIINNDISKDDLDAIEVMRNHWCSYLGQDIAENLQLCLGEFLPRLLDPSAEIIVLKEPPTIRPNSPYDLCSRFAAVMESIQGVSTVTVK
The experiment is described as follows: USP28 activity measured using ubiquitin-rhodamine 110 method. The format is biochemical. To be noted: for IC50: purified USP28 4 nM, ubiquitin-rhodamine 110 125 nM, 30 min preincubation; for IC50(F)/IC50(E) USP28: ratio of IC50 of related 3-NH2 compound (F) to IC50 of 3-NHMe compound disclosed herein (E). Here is the method:
USP28 activity was measured using ubiquitin-rhodamine 110 method.
(§1) Purified USP28 and the ubiquitin-rhodamine 110 substrate used for measuring DUBs activity were both from R&D Systems. Test compounds were first dissolved in DMSO to prepare a 10 mM stock solution, and then the stock solution was diluted with a buffer solution [containing 20 mM Tris-HCl (pH 8.0), 2 mM CaCl2), 3 mM BME, 0.01% Prionix, 0.01% Triton X-100] to the desired concentration (with DMSO content less than or equal to 0.5%). The dilution was mixed well with USP28 (final concentration 4 nM) in a 96-well plate and incubated at room temperature for 30 min, and then added with the substrate (ubiquitin-rhodamine 110) to 125 nM. The final volume of the whole reaction system was 20 μL. The released fluorescence (excitation wavelength 485 nm, emission wavelength 535 nm) was detected immediately on a microplate reader after the addition of the substrate. The inhibitory rate of the test compound against USP28 was calculated according to the following formula: Inhibition %=1−[(test compound+fluorescence value of substrate−fluorescence value of test compound (no substrate))/mean fluorescence value of DMSO control group−fluorescence value of test compound (no substrate)]
According to the inhibitory rates of the test compound against USP28 under different concentrations, IC50 was calculated.

A further experiment has as its target T2, USP25 (Homo sapiens, UniProt Q9UHP3).
T2 construct: purchased R&D Systems
T2 sequence (Q9UHP3 1-1055): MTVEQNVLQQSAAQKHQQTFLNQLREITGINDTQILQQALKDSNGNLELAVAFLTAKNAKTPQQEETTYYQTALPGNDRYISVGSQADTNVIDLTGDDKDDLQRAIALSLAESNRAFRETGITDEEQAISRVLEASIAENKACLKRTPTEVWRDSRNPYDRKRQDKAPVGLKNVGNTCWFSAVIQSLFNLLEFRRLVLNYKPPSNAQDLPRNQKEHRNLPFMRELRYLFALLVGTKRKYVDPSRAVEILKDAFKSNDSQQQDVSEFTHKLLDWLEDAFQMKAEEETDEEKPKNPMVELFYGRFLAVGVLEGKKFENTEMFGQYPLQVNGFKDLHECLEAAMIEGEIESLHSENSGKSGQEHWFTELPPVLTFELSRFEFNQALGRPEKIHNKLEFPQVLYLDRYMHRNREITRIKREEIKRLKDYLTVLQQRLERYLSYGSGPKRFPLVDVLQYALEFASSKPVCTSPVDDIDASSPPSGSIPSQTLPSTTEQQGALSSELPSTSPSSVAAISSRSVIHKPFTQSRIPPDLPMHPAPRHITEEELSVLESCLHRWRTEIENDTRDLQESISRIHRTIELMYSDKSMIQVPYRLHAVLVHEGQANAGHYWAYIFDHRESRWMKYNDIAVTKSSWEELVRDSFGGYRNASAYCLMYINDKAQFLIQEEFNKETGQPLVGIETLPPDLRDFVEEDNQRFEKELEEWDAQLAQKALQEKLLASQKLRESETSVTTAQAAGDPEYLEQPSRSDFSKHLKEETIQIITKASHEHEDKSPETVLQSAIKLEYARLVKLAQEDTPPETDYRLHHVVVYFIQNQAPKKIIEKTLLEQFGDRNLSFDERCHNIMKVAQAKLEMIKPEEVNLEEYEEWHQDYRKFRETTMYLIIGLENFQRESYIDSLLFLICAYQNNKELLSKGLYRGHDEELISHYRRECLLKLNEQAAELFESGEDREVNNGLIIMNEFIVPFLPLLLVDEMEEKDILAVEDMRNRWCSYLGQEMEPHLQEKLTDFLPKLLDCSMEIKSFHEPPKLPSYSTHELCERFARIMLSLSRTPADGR
The experiment is described as follows: USP25 activity measured using ubiquitin-rhodamine 110 method. It counts as biochemical. To be noted: for IC50: purified USP25 15 nM, ubiquitin-rhodamine 110 125 nM, 30 min preincubation; for IC50(F)/IC50(E) USP25: ratio of IC50 of related 3-NH2 compound (F) to IC50 of 3-NHMe compound disclosed herein (E). The method, then: USP25 activity was measured using ubiquitin-rhodamine 110 method.
as §1, with “Purified USP25” for “Purified USP28”, “with USP25” for “with USP28”, “concentration 15” for “concentration 4”, “the substrate, and the” for “the substrate. The”, “against USP25” for “against USP28”
As in Example 11, according to the inhibitory rates of the test compound against USP25 under different concentrations, IC50 was calculated.

Setting [1] is: read-out: Inhibitory activity against USP28 (IC50).
The mark [2] stands for this setting: read-out: Inhibitory activity against USP25 (IC50).
The mark [3] stands for this setting: Inhibitory activity against USP28 (IC50).
[4] abbreviates: Inhibitory activity against USP25 (IC50).

For the compound `Cc1ccc2c(NCCN(C)C)c(C(=O)NCCc3ccc(N4C[C@H]5CC[C@@H](C4)N5)cc3)sc2n1` [Compound I-25], the IC50 on USP28 (setting [1]) was 5000 to 10000 nM; on USP25 (setting [2]), greater than 10000 nM.

As for `CNc1c(C(=O)NCCc2ccc(N3C[C@H]4CC[C@@H](C3)N4)cc2)sc2nc(Cl)ccc12` [Compound I-82], the IC50 at USP28 (setting [1]) and at USP25 (setting [2]) was 100 to 1000 nM each time.

On to `CNc1c(C(=O)NCCc2ccc(N3C[C@H]4CC[C@@H](C3)N4)cc2)sc2nc(C)cnc12` [Compound I-71], for which the half-inhibitory concentration (IC50) was less than 100 nM on USP28 (setting [3]) and 5000 to 10000 nM at USP25 (setting [2]).

Consider `CCc1ccc2c(NC)c(C(=O)NCCc3ccc(N4C[C@H]5CC[C@@H](C4)N5)cc3)sc2n1` [Compound I-10], for which the IC50 on USP28 (setting [3]) was less than 100 nM; on USP25 (setting [2]), 1000 to 5000 nM.

Regarding `CNc1c(C(=O)N[C@@H](Cc2ccc(N3C[C@H]4CC[C@@H](C3)N4)cc2)C(F)(F)F)sc2nc(C)ccc12` [Compound I-66], the half-maximal inhibitory concentration (IC50) at USP28 (setting [1]) and at USP25 (setting [2]) was 100 to 1000 nM in each case.

For `CNc1c(C(=O)NCCc2cc(F)c(N3C[C@H]4CC[C@@H](C3)N4)c(F)c2)sc2nc(C)ccc12` [Compound I-43], the results for the IC50 at USP28 (setting [3]) and on USP25 (setting [2]) were less than 100 nM and greater than 10000 nM, respectively.

Turning to `CCc1ccc2c(NC)c(C(=O)N[C@H]3COc4cc(N5CC6CCC(C5)N6)ccc4C3)sc2n1` [Compound I-91], the 50% inhibitory concentration (IC50) against USP28 (setting [3]) and against USP25 (setting [4]) was less than 100 nM throughout.

On to `CCCNc1c(C(=O)NCCc2ccc(N3C[C@H]4CC[C@@H](C3)N4)cc2)sc2nc(C)ccc12` [Compound I-24], for which the half-inhibitory concentration (IC50) on USP28 (setting [1]) is 100 to 1000 nM; on USP25 (setting [2]), greater than 10000 nM.

For `CNc1c(C(=O)NCCc2ccc(N3C[C@H]4CC[C@@H](C3)N4)cc2)sc2nccc(C(F)(F)F)c12` [Compound I-21], the figures for the half-inhibitory concentration (IC50) on USP28 (setting [1]) and at USP25 (setting [2]) were 100 to 1000 nM and 1000 to 5000 nM, respectively.

Regarding `CNc1c(C(=O)NCCc2ccc(N3C[C@H]4CC[C@@H](C3)N4)cc2)sc2ncc(C)cc12` [Compound I-19], the IC50 at USP28 (setting [1]) is 1000 to 5000 nM; at USP25 (setting [2]) it was greater than 10000 nM.

Take `CNc1c(C(=O)NCCc2ccc(N3C[C@H]4CC[C@@H](C3)N4)cc2)sc2nc(C3CC3)ccc12` [Compound I-15]: the results for the 50% inhibitory concentration (IC50) on USP28 (setting [3]) and on USP25 (setting [2]) were less than 100 nM and 1000 to 5000 nM, respectively.

In the case of `CNc1c(C(=O)NCCc2ccc(N3C[C@H]4CC[C@@H](C3)N4)cc2)sc2nc(CO)ccc12` [Compound I-22], the IC50 on USP28 (setting [1]) and at USP25 (setting [2]) was 100 to 1000 nM each time.

In the case of `CCc1nc2sc(C(=O)NCCc3ccc(N4C[C@H]5CC[C@@H](C4)N5)cc3)c(NC)c2c(C(F)(F)F)c1C` [Compound I-32], the results for the half-maximal inhibitory concentration (IC50) against USP28 (setting [3]) and at USP25 (setting [2]) were less than 100 nM and 5000 to 10000 nM, respectively.

For `CCCCc1ccc2c(NC)c(C(=O)NCCc3ccc(N4C[C@H]5CC[C@@H](C4)N5)cc3)sc2n1` [Compound I-13], the IC50 at USP28 (setting [3]) is less than 100 nM; at USP25 (setting [2]), greater than 10000 nM.

Regarding `CNc1c(C(=O)NCCc2csc3ccccc23)sc2nc(C)ccc12` [Compound I-57], the IC50 on USP28 (setting [1]) was less than 100 nM; on USP25 (setting [2]), 5000 to 10000 nM.

In the case of `CNc1c(C(=O)NCCc2ccc(N3C[C@H]4CC[C@@H](C3)N4)cc2F)sc2nc(C)ccc12` [Compound I-39], the IC50 on USP28 (setting [1]) and on USP25 (setting [2]) was 100 to 1000 nM in each case.

Turning to `CNc1c(C(=O)NCCc2ccc(N3C[C@H]4CC[C@@H](C3)N4)c(F)c2)sc2nc(C)cnc12` [Compound I-76], the half-inhibitory concentration (IC50) against USP28 (setting [3]) and at USP25 (setting [4]) was less than 100 nM in each case. The “IC50(F)/IC50(E) USP28” value on USP28 is 33.3. Besides, the “IC50(F)/IC50(E) USP25” value on USP25 is reported as greater than 20.

For `CNc1c(C(=O)NCCc2ccc(N3C[C@H]4CC[C@@H](C3)N4)cc2)sc2nc(C(F)F)cc(C)c12` [Compound I-28], the concentration for half-maximal inhibition (IC50) at USP28 (setting [3]) and against USP25 (setting [4]) was less than 100 nM in each case.

With `CNc1c(C(=O)N[C@H]2COc3cc(N4CC5CCC(C4)N5)ccc3C2)sc2nc(C)ccc12` [Compound I-85], the IC50 against USP28 (setting [3]) and against USP25 (setting [4]) was less than 100 nM each time. Also, the “IC50(F)/IC50(E) USP28” value on USP28 is 8.8. In addition, on USP25, the “IC50(F)/IC50(E) USP25” value was greater than 8.

On to `CNc1c(C(=O)N[C@H](C)Cc2ccc(Br)cc2)sc2nc(C)ccc12` [Compound I-62], for which the IC50 at USP28 (setting [1]) is 100 to 1000 nM; at USP25 (setting [2]) it was greater than 10000 nM.

For `CNc1c(C(=O)NCCc2ccc(N3C[C@H]4CC[C@@H](C3)N4)c(C#N)c2)sc2nc(C)ccc12` [Compound I-37], the IC50 against USP28 (setting [3]) and on USP25 (setting [4]) was less than 100 nM each time.

`CNc1c(C(=O)NC2CCc3cc(N4CC5CCC(C4)N5)ccc3C2)sc2nc(C)ccc12` (centres unmarked) [Compound I-89]: the IC50 was in the range of 1000 to 5000 nM on USP28 (setting [1]) and 5000 to 10000 nM at USP25 (setting [2]).

`CCc1nc2sc(C(=O)NCCc3ccc(N4C[C@H]5CC[C@@H](C4)N5)cc3)c(NC)c2nc1C` [Compound I-74]: the half-maximal inhibitory concentration (IC50) against USP28 (setting [3]) and on USP25 (setting [4]) was less than 100 nM in each case.

As usually defined, the IC50 is the point on the concentration scale where inhibition reaches its midpoint.
